In patent publication US7273715B2 (priority 2003, dated 2007):
Read-outs that look alike come from different tables or passages of the source. Peptide text beside a SMILES is read from it. * marks the point of attachment. Cbz = O=C(OCc1ccccc1)*

Key:
[1] = biological target: T1, GS-9005 hydrolase A (Homo sapiens, UniProt P42785); type: biochemical
T1 construct: Varying amounts of purified GS-9005 hydrolase A and control enzymes; from tissue; host or cells: human peripheral blood mononuclear cells (PBMC), purified by Q15 flow-through, SP-Sepharose, Butyl Sepharose HIC and lentil lectin chromatography
T1 sequence (P42785 46-496): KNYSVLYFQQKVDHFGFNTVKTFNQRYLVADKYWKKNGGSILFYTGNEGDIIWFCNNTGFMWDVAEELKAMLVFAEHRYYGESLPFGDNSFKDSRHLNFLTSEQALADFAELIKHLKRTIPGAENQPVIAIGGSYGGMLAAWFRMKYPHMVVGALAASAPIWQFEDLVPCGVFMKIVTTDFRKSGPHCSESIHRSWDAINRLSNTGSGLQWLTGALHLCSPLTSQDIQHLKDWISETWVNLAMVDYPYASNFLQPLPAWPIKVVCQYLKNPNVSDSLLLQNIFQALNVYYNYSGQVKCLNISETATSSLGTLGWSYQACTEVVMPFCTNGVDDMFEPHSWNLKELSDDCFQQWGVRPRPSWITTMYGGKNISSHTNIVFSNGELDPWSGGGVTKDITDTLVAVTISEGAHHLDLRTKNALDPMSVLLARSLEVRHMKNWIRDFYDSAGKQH

[2] = biological target: T1, GS-9005 hydrolase A; type: biochemical; remark: listed apart in the source
[3] = biological target: Human Prolylcarboxypeptidase (Homo sapiens, UniProt P42785); conditions: read-out: Inhibition profile, ProlylcarboxyPeptidase; cited from earlier work
[4] = pH 6.5, read-out: IC50 (inhibition profile, 9005 Hydrolase A)
[5] = read-out: concentration at which GS-9005 hydrolase A is inhibited by 50%

## COC(=O)[C@H](C)N[P@](=O)(CO[C@H](C)Cn1cnc2c(N)ncnc21)Oc1ccccc1 [Compound U]
[1]
  specific activity of GS-9005 hydrolase A against the compound (comparison in words): approximately equivalent specific activity

## CCOC(=O)[C@H](C)NP(=O)(COc1ccc(C[C@@H]2[C@H](O)[C@@H](O)[C@@H](Cc3ccc(OC)cc3)N(Cc3ccc4[nH]ncc4c3)C(=O)N2Cc2ccc3[nH]ncc3c2)cc1)Oc1ccccc1 (stereo partly shown) [Compound CC]
[1]
  specific activity of GS-9005 hydrolase A against the compound (comparison in words): approximately equivalent specific activity

## O=C[C@@H]1CCCN1C(=O)[C@@H]1CCCN1C(=O)OCc1ccccc1 [Cbz-pro-pro-COH, Carboxybenzoyl-Pro-Pro-COH] (Cbz-Pro-Pro-aldehyde)
[2]
  inhibition of GS-9005 hydrolase A (in words): inhibited
[2]; [4]
  IC50: 1 µM
[2]; [5]
  IC50: ~1 µM
[3]
  IC50: 1 µM

## C=C(OC(C)C)[C@H](C)N[P@](=O)(CO[C@H](C)Cn1cnc2c(C)ncnc21)Oc1ccccc1 [Compound K]
[1]
  specific activity of GS-9005 hydrolase A against the compound (comparison in words): approximately equivalent specific activity

## CCOC(=O)[C@H](C)OP(=O)(CCN1CCN(C(=O)c2c3c(c(O)c4ncccc24)C(=O)N(Cc2ccc(F)cc2)C3)CC1)Oc1ccccc1 (stereo partly shown) [Compound Y]
[1]
  specific activity of GS-9005 hydrolase A against the compound (comparison in words): greater than its specific activity against Compound B

## CCOC(=O)[C@H](C)NP(=O)(COc1ccc(Cn2c(COC(N)=O)nc(C(C)C)c2Sc2cc(Cl)cc(Cl)c2)cc1)Oc1ccccc1 (stereo partly shown) [Compound KK]
[1]
  specific activity of GS-9005 hydrolase A against the compound (comparison in words): greater than its specific activity against Compound FF

## CCOC(=O)[C@H](C)NP(=O)(COc1ccc(C[C@@H]2[C@H](O)[C@@H](O)[C@@H](Cc3ccc(OC)cc3)N(Cc3ccc4[nH]ncc4c3)C(=O)N2Cc2ccc3[nH]ncc3c2)cc1)N[C@@H](C)C(=O)OCC [Compound BB]
[1]
  specific activity of GS-9005 hydrolase A against the compound (comparison in words): approximately equivalent specific activity

## CCSc1ccc(CN2CCCN(Cc3cccnc3)CC2)cc1 [Compound JJ]
[1]
  specific activity of GS-9005 hydrolase A against the compound (comparison in words): greater than its specific activity against Compound AA

## CCOC(=O)[C@H](C)OP(=O)(COc1ccc(C[C@H](NC(=O)O[C@H]2CO[C@H]3OCCC32)[C@H](O)CN(CC(C)C)S(=O)(=O)c2ccc(OC)cc2)cc1)Oc1ccccc1 (stereo partly shown) [Compound A]
[1]
  specific activity of GS-9005 hydrolase A against the compound (comparison in words): greater than its specific activity against Compound L

## COC(=O)[C@H](C)NP(=O)(COc1ccc(Cn2c(COC(N)=O)nc(C(C)C)c2Sc2cc(Cl)cc(Cl)c2)cc1)Oc1ccccc1 (stereo partly shown) [Compound LL]
[1]
  specific activity of GS-9005 hydrolase A against the compound (comparison in words): approximately equivalent specific activity

## C=C(OC(C)C)C(C)OP(=O)(CCNCc1ccc(C[C@H](NC(=O)O[C@H]2CO[C@H]3OCC[C@H]32)[C@H](O)CN(CC(C)C)S(=O)(=O)c2ccc(OC)cc2)cc1)Oc1ccccc1 (stereo partly shown) [Compound X]
[1]
  specific activity of GS-9005 hydrolase A against the compound (comparison in words): greater than its specific activity against Compound V

## CCOC(=O)[C@H](C)OP(=O)(CCNCc1ccc(Cn2c(COC(N)=O)nc(C(C)C)c2Sc2cc(Cl)cc(Cl)c2)cc1)Oc1ccccc1 (stereo partly shown) [Compound GG]
[1]
  specific activity of GS-9005 hydrolase A against the compound (comparison in words): greater than its specific activity against Compound DD

## C=C(OCC)[C@H](C)OP(=O)(CCNC(=O)c1c2c(c(O)c3ncccc13)C(=O)N(Cc1ccc(F)cc1)C2)Oc1ccccc1 (stereo partly shown) [Compound Z]
[1]
  specific activity of GS-9005 hydrolase A against the compound (comparison in words): approximately equivalent specific activity

## CCOC(=O)COP(=O)(COc1ccc(Cn2c(COC(N)=O)nc(C(C)C)c2Sc2cc(Cl)cc(Cl)c2)cc1)Oc1ccccc1 (stereo not shown) [Compound HH]
[1]
  specific activity of GS-9005 hydrolase A against the compound (comparison in words): greater than its specific activity against Compound I

## CCOC(=O)[C@H](C)OP(=O)(COc1ccc(C[C@@H]2[C@H](O)[C@@H](O)[C@@H](Cc3ccc(OC)cc3)N(Cc3ccc4[nH]ncc4c3)C(=O)N2Cc2ccc3[nH]ncc3c2)cc1)Oc1c(C)cccc1C (stereo partly shown) [Compound EE]
[1]
  specific activity of GS-9005 hydrolase A against the compound (comparison in words): greater than its specific activity against Compound W

## O=S(=O)(F)Cc1ccccc1 [PMSF]
[2]; [4]
  IC50: 200 µM
[2]; [5]
  IC50: ~200 µM
[3]
  IC50: 100 to 300 µM

## O=c1oc(Cl)c(Cl)c2ccccc12 [DCI, 3,4 dichloroisocoumarin]
[2]
  inhibition of GS-9005 hydrolase A (in words): inhibited
